Where “and” joins values, the source holds several entries; their conditions need not be identical. Equal values may be shown once. Inconclusive results and toxic doses are left out.

The results in this text go back to PubChem BioAssay AID192 (DTP/NCI, 2004).

The test system of the assay is BDF1 mice, B16 melanoma ip, median survival T/C. Description: NCI In Vivo Anticancer Drug Screen. Data for tumor model B16 Melanoma (intraperitoneal) in B6D2F1 (BDF1) mice. Particulars: endpoint: median survival time, higher = longer survival. A digest of the protocol:
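Survival or tumor size is measured after treatment of tumor-bearing mice and normalised to the vehicle-treated control group.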

For `O=c1[nH]cc(F)c(=O)[nH]1`, the T/C by setting is: (dose: 0.5 mg/kg/injection, schedule: Q01DX009 (ip), vehicle: saline) 107 % of control; (dose: 1.25 mg/kg/injection, schedule: Q03HX024 (ip), vehicle: saline) 110 % of control; (dose: 2.0 mg/kg/injection, schedule: Q01DX009 (ip), vehicle: saline) 118 % of control; (dose: 2.5 mg/kg/injection, schedule: Q01DX017 (ip), vehicle: saline) 104 % of control; (dose: 2.5 mg/kg/injection, schedule: Q03HX024 (ip), vehicle: saline) 112 % of control; (dose: 3.12 mg/kg/injection, schedule: Q01DX009 (ip), vehicle: saline) 102 % of control. The T/C (dose: 3.8 mg/kg/injection, schedule: Q04DX003 (ip), vehicle: saline) is 116 % of control; the T/C (dose: 5.0 mg/kg/injection, schedule: Q01DX001 (ip), vehicle: saline) was 105 % of control; the T/C (dose: 5.0 mg/kg/injection, schedule: Q01DX009 (ip), vehicle: saline with Tween-80) was 104 % of control; the T/C (dose: 5.0 mg/kg/injection, schedule: Q01DX017 (ip), vehicle: saline) was 107 % of control; the T/C (dose: 5.0 mg/kg/injection, schedule: Q05DX010 (ip), vehicle: saline) is 115 % of control; the T/C (dose: 6.25 mg/kg/injection, schedule: Q01DX009 (ip), vehicle: saline) is 91 % of control. For the same molecule, the T/C runs as follows: (dose: 7.0 mg/kg/injection, schedule: Q01DX009 (ip), vehicle: saline) 117 % of control; (dose: 7.5 mg/kg/injection, schedule: Q01DX009 (ip), vehicle: saline) 117 % of control; (dose: 7.5 mg/kg/injection, schedule: Q04DX003 (ip), vehicle: saline) 116 % of control; (dose: 7.8 mg/kg/injection, schedule: Q04DX003 (ip), vehicle: saline) 104 % of control; (dose: 10.0 mg/kg/injection, schedule: Q01DX001 (ip), vehicle: saline) 107 % of control; (dose: 10.0 mg/kg/injection, schedule: Q01DX009 (ip), vehicle: saline with Tween-80) 104 % of control and 111 % of control and 114 % of control. Moreover, the T/C was 120 % of control (dose: 10.0 mg/kg/injection, schedule: Q05DX010 (ip), vehicle: saline); 115 % of control (dose: 12.0 mg/kg/injection, schedule: Q01DX009 (ip), vehicle: saline); 123 % of control (dose: 12.5 mg/kg/injection, schedule: Q01DX009 (ip), vehicle: saline); 107 % of control (dose: 12.5 mg/kg/injection, schedule: Q04DX005 (ip), vehicle: saline); 108 % of control (dose: 13.0 mg/kg/injection, schedule: Q04DX003 (ip), vehicle: saline); 121 % of control and 122 % of control (dose: 15.0 mg/kg/injection, schedule: Q01DX009 (ip), vehicle: saline). Also, the T/C is, setting by setting: (dose: 15.0 mg/kg/injection, schedule: Q04DX003 (ip), vehicle: saline) 122 % of control; (dose: 20.0 mg/kg/injection, schedule: Q01DX001 (ip), vehicle: saline) 115 % of control; (dose: 20.0 mg/kg/injection, schedule: Q01DX009 (ip), vehicle: saline with Tween-80) 116 % of control and 119 % of control; (dose: 20.0 mg/kg/injection, schedule: Q01DX017 (ip), vehicle: saline) 161 % of control and 169 % of control; (dose: 21.6 mg/kg/injection, schedule: Q04DX003 (ip), vehicle: saline) 103 % of control; (dose: 25.0 mg/kg/injection, schedule: Q01DX009 (ip), vehicle: saline) 119 % of control. The T/C was 122 % of control (dose: 25.0 mg/kg/injection, schedule: Q04DX003 (ip), vehicle: saline); 117 % of control (dose: 25.0 mg/kg/injection, schedule: Q04DX005 (ip), vehicle: saline); 124 % of control (dose: 30.0 mg/kg/injection, schedule: Q01DX009 (ip), vehicle: saline); 117 % of control and 122 % of control (dose: 30.0 mg/kg/injection, schedule: Q04DX003 (ip), vehicle: saline); 104 % of control (dose: 36.0 mg/kg/injection, schedule: Q04DX003 (ip), vehicle: saline); 120 % of control (dose: 40.0 mg/kg/injection, schedule: Q01DX001 (ip), vehicle: saline). The T/C reads like this: (dose: 40.0 mg/kg/injection, schedule: Q01DX009 (ip), vehicle: saline with Tween-80) 88 % of control and 97 % of control; (dose: 50.0 mg/kg/injection, schedule: Q01DX001 (ip), vehicle: saline) 110 % of control; (dose: 50.0 mg/kg/injection, schedule: Q04DX003 (ip), vehicle: saline) 120 % of control; (dose: 50.0 mg/kg/injection, schedule: Q04DX005 (ip), vehicle: saline) 115 % of control; (dose: 60.0 mg/kg/injection, schedule: Q01DX009 (ip), vehicle: saline) 39 % of control; (dose: 60.0 mg/kg/injection, schedule: Q04DX003 (ip), vehicle: saline) 52 % of control and 119 % of control. Further, the T/C by setting is: (dose: 90.0 mg/kg/injection, schedule: Q04DX003 (ip), vehicle: saline) 123 % of control; (dose: 100.0 mg/kg/injection, schedule: Q01DX001 (ip), vehicle: saline) 110 % of control; (dose: 120.0 mg/kg/injection, schedule: Q04DX003 (ip), vehicle: saline) 93 % of control; (dose: 200.0 mg/kg/injection, schedule: Q01DX001 (ip), vehicle: saline) 110 % of control; (dose: 240.0 mg/kg/injection, schedule: Q04DX003 (ip), vehicle: saline) 73 % of control; (dose: 480.0 mg/kg/injection, schedule: Q04DX003 (ip), vehicle: saline) 47 % of control.

As to `CNC(=O)Oc1ccc2c(c1)OCO2`, the T/C was 95 % of control (dose: 50.0 mg/kg/injection, schedule: Q01DX009 (ip), vehicle: saline); 114 % of control (dose: 100.0 mg/kg/injection, schedule: Q01DX009 (ip), vehicle: saline); 107 % of control (dose: 200.0 mg/kg/injection, schedule: Q01DX009 (ip), vehicle: saline).

Take `Cc1cc([N+](=O)[O-])cc(C)c1OC(=O)c1ccc(N=C(N)N)cc1`: the T/C is, setting by setting: (dose: 12.5 mg/kg/injection, schedule: Q01DX009 (ip), vehicle: Klucel (hydroxypropylcellulose) (HPC)) 98 % of control; (dose: 25.0 mg/kg/injection, schedule: Q01DX009 (ip), vehicle: Klucel (hydroxypropylcellulose) (HPC)) 97 % of control; (dose: 50.0 mg/kg/injection, schedule: Q01DX009 (ip), vehicle: Klucel (hydroxypropylcellulose) (HPC)) 90 % of control.

With `O=S(=O)(O)O.[O]=[V]`, the T/C runs as follows: (dose: 1.56 mg/kg/injection, schedule: Q01DX009 (ip), vehicle: saline with Tween-80) 87 % of control; (dose: 3.13 mg/kg/injection, schedule: Q01DX009 (ip), vehicle: saline with Tween-80) 97 % of control; (dose: 6.25 mg/kg/injection, schedule: Q01DX009 (ip), vehicle: saline with Tween-80) 94 % of control.

With `CCC12C=CCN3CCC4(c5cc(C(c6cccnc6)c6cc7ccccc7n6C)c(OC)cc5N(C)C4C(O)(C(=O)OC)C1OC(C)=O)C32` (stereo unspecified), the T/C reads like this: (dose: 0.06 mg/kg/injection, schedule: Q01DX009 (ip), vehicle: water) 109 % of control; (dose: 0.13 mg/kg/injection, schedule: Q01DX009 (ip), vehicle: water) 103 % of control; (dose: 0.25 mg/kg/injection, schedule: Q01DX009 (ip), vehicle: water) 100 % of control; (dose: 0.5 mg/kg/injection, schedule: Q01DX009 (ip), vehicle: water) 113 % of control; (dose: 1.0 mg/kg/injection, schedule: Q01DX009 (ip), vehicle: water) 110 % of control; (dose: 2.0 mg/kg/injection, schedule: Q01DX009 (ip), vehicle: other) 104 % of control. Also, the T/C runs as follows: (dose: 2.0 mg/kg/injection, schedule: Q01DX009 (ip), vehicle: water) 107 % of control; (dose: 4.0 mg/kg/injection, schedule: Q01DX009 (ip), vehicle: other) 95 % of control; (dose: 8.0 mg/kg/injection, schedule: Q01DX009 (ip), vehicle: other) 101 % of control; (dose: 16.0 mg/kg/injection, schedule: Q01DX009 (ip), vehicle: other) 105 % of control; (dose: 32.0 mg/kg/injection, schedule: Q01DX009 (ip), vehicle: other) 106 % of control.

With `Cc1ccc(NC(=O)c2ccccc2Cl)cc1Cl`, the T/C is 103 % of control (dose: 75.0 mg/kg/injection, schedule: Q01DX009 (ip), vehicle: Klucel (hydroxypropylcellulose) (HPC)); 103 % of control (dose: 150.0 mg/kg/injection, schedule: Q01DX009 (ip), vehicle: Klucel (hydroxypropylcellulose) (HPC)); 100 % of control (dose: 300.0 mg/kg/injection, schedule: Q01DX009 (ip), vehicle: Klucel (hydroxypropylcellulose) (HPC)).
